“And” between values parts separate entries of the source, which are not always exact repeats. Equal values may be shown once.
Tests used:
[1] = antimicrobial activity
[2] = bioavailability; design: species or system mammals; conditions: in vivo
[3] = bulk density determination; assay type: physicochemical
Excerpt: Untapped density = 25 g/untapped volume. […] Tapped density = 25 g/Tapped volume.

[4] = mean mass diameter determination (laser diffraction); conditions: for Mean mass diameter: individual samples made by the procedure of example 1, laser diffraction
[5] = water

Which antimicrobial activity [1] does the source give for `CC1CCc2c(N3CCC(O)CC3)c(F)cc3c(=O)c(C(=O)O)cn1c23.N=C(N)NCCCC(N)C(=O)O` (racemic) [R, S-9-fluoro-6,7-dihydro-8-(4-hydroxypiperidin-1-yl)-5-methyl-1-oxo-1H,5H-benzo [i,j]-quinolizine-2-carboxylic acid DL-arginine salt] here?
The antimicrobial activity was “have antimicrobial activity”.

For `C[C@H]1CCc2c(N3CCC(O)CC3)c(F)cc3c(=O)c(C(=O)O)cn1c23`, which bioavailability [2] is on record?
Its bioavailability is “favorable bioavailability”.

And the “Bulk density (tapped)” value ([3]; 25 gm/tapped volume, tapped 150 times)?
Its value is 0.64 g/mL.

And the “Bulk density (untapped)” value ([3]; 25 gm/untapped volume)?
Its value is 0.57 g/mL.

And the Mean mass diameter ([4]; hydrate)?
Its Mean mass diameter is “less than or equal to 40 µm”.

What about the Mean mass diameter ([4]; listed as Example 1, hydrate) of the same compound?
Its Mean mass diameter is 32.92 µm and 24.22 µm and 34.51 µm and 39.07 µm.

What about the “Mean mass diameter, mean value” ([4]; mean of four samples) of the same compound?
Its value is 32.68 µm.

Which antimicrobial activity [1] does the source give for `C[C@@H]1CCc2c(N3CCC(O)CC3)c(F)cc3c(=O)c(C(=O)O)cn1c23.N=C(N)NCCC[C@H](N)C(=O)O` [R-(+)-9-fluoro-6,7-dihydro-8-(4-hydroxypipe-1-yl)-5-1-oxo-1H,5H-benzo[i,j]quinolizine-2-carboxylic acid L-arginine salt] here?
The antimicrobial activity was “have antimicrobial activity”.

With `CC1CCc2c(N3CCC(O)CC3)c(F)cc3c(=O)c(C(=O)O)cn1c23.N=C(N)NCCC[C@H](N)C(=O)O` (racemic) [RS-(±)-9-fluoro-6,7-dihydro-8-(4-hydroxypiperidin-1-yl)-5-methyl-1-oxo-1H,5H-benzo[i,j]quinolizine-2-carboxylic acid L-arginine salt] as the compound, how does the antimicrobial activity [1] read?
The antimicrobial activity was “have antimicrobial activity”.

Which antimicrobial activity [1] does the source give for “R-(+)-9-fluoro-6,7-dihydro-8-(4-hydroxypiperidin-1-yl)-5-methyl-1-oxo-1H,5H-benzo [ij]-quinolizine-2-carboxylic acid DL-arginine salt” here?
Its antimicrobial activity is “have antimicrobial activity”.

With `CC1CCc2c(N3CCC(O)CC3)c(F)cc3c(=O)c(C(=O)O)cn1c23.N=C(N)NCCC[C@@H](N)C(=O)O` (racemic) [RS-(±)-9-fluoro-6,7-dihydro-8-(4-hydroxypiuenidin-1-yl)-5-methyl-1-oxo-1H,5H-benzo[i,j]quinolizine-2-carboxylic acid D-argirrine salt] as the compound, how does the antimicrobial activity [1] read?
Its antimicrobial activity is “have antimicrobial activity”.

With `C[C@@H]1CCc2c(N3CCC(O)CC3)c(F)cc3c(=O)c(C(=O)O)cn1c23.N=C(N)NCCC[C@@H](N)C(=O)O` [R-(+)-9-fluoro-6,7-dihydro-8-(4-hydroxypiperidin-1-yl)-5-methyl-1-oxo-1H,5H-benzo[i,j]quinolizine-2-carboxylic acid D-arginine salt] as the compound, how does the antimicrobial activity [1] read?
The antimicrobial activity was “have antimicrobial activity”.

What does the source list for `C[C@H]1CCc2c(N3CCC(O)CC3)c(F)cc3c(=O)c(C(=O)O)cn1c23` [reference compound]?
antimicrobial activity compared with the R-(+)- and RS-(±)-acids [1]: more potent antimicrobial activity; aqueous solubility [5]: 800 to 2000 µg/mL

With “S-(-)-9-fluoro-6,7-dihydro-8-(4-hydroxypiperidin-1-yl)-5-methyl-1-oxo-1H,5H-benzo [ij]-quinolizine-2-carboxylic acid DL-arginine salt” as the compound, how does the antimicrobial activity [1] read?
The antimicrobial activity was “have antimicrobial activity”.

From patent EP1509519B1, “CRYSTALLINE FLUOROQUINOLONE ARGININE SALT FORM” (Wockhardt Limited, priority 2002, dated 2003)
